Laboratory results as given in paper PMC7897990, “TriTOX: A novel Trichomonas vaginalis assay platform for high-throughput screening of compound libraries” (International Journal for Parasitology: Drugs and Drug …, 2021).
Read-outs that look alike come from different tables or passages of the source.

How the values were obtained:
[1] = test system: nontumorigenic neonatal foreskin fibroblast (NFF) cell line
[2] = test system: Trichomonas vaginalis G3 trophozoites; conditions: for T.vaginalis_Absorbance_Rep1: replicate 1, raw absorbance; for T.vaginalis_Absorbance_Rep2: replicate 2, raw absorbance
[3] = NFF_NS1 screen 5 µg/mL, single concentration
[4] = HTS single concentration, parasite screen 1 µg/mL, replicate 1
[5] = HTS single concentration, parasite screen 1 µg/mL, replicate 2
[6] = HTS, parasite screen at 1 µg/mL, replicate 1
[7] = HTS, parasite screen at 1 µg/mL
[8] = HTS, parasite screen at 1 µg/mL, replicate 2
[9] = NFF fibroblasts, single concentration 5 µg/mL
[10] = HTS replicate 1, parasite screen 1 µg/mL
[11] = HTS replicate 2, parasite screen 1 µg/mL
[12] = NFF fibroblast screen at 5 µg/mL, A = active, I = inactive
[13] = replicate 1, parasite screen at 1 µg/mL
[14] = replicate 2, parasite screen at 1 µg/mL
[15] = NFF_NS1 screen at 5 µg/mL, NFF cells
[16] = parasite screen at 1 µg/mL, replicate 1
[17] = parasite screen at 1 µg/mL, replicate 2

## CC1OC(OC2C(CO)OC(OC3C(CO)OC(O)C(O)C3O)C(O)C2O)C(O)C(O)C1NC1C=C(CO)C(O)C(O)C1O (stereo not shown) [BIA-A1231]
[1]; [3]
  NFF_Activity: I (otherwise these were reported as inactive (I))
[2]; [4]
  T.vaginalis_%inb_Rep1: 14.16%
[2]; [5]
  T.vaginalis_%inb_Rep2: 6.22%

## CS(=O)(=O)c1ccc([C@@H](O)[C@H](N)CF)cc1.Cl [Florfenicol amine HCl]
[1]; NFF_NS1 screen at 5 µg/mL
  NFF_Activity: I (otherwise these were reported as inactive (I))
[2]; [6]
  T.vaginalis_%inb_Rep1: 15.67%
[2]; [7]
  T.vaginalis_Absorbance_Rep1: 1
  T.vaginalis_Absorbance_Rep2: 0.829
[2]; [8]
  T.vaginalis_%inb_Rep2: 15.11%

## CCOC(=O)[C@H](Cc1ccccc1)NC(=O)c1cc(Cl)c2c(c1O)C(=O)O[C@H](C)C2 [Ochratoxin C]
[1]; [9]
  NFF_Activity: I (otherwise these were reported as inactive (I))
[2]; [10]
  T.vaginalis_%inb_Rep1: 15.37%
[2]; [11]
  T.vaginalis_%inb_Rep2: 4.81%

## C[C@@H]1CC[C@H](O)/C=C/C(=O)O[C@H](C)CC[C@H](O)/C=C/C(=O)O1 [Pyrenophorol]
[1]; [9]
  NFF_Activity: I (otherwise these were reported as inactive (I))
[2]; [10]
  T.vaginalis_%inb_Rep1: 10.44%
[2]; [11]
  T.vaginalis_%inb_Rep2: 11.15%

## COC(=O)c1cccc2oc(-c3cccc4oc(-c5ccccc5O)nc34)nc12 [UK-1]
[1]; [12]
  NFF_Activity: I (otherwise these were reported as inactive (I))
[2]; [6]
  T.vaginalis_%inb_Rep1: 10.64%
[2]; [8]
  T.vaginalis_%inb_Rep2: 15.36%

## COC1=C(N)C(=O)c2nc(-c3nc(C(=O)O)c(C)c(-c4cccc(OC)c4O)c3N)ccc2C1=O [BIA-S1088]
[1]; [3]
  NFF_Activity: A (active (A) compounds having >25% inhibitory activity)
[2]; [4]
  T.vaginalis_%inb_Rep1: 77.76%
[2]; [5]
  T.vaginalis_%inb_Rep2: 92.91%

## CN=C1NC(=O)[C@H]([C@H](C)c2c[nH]c3ccccc23)O1 [BIA-I1040]
[1]; NFF cells, screen at 5 µg/mL
  NFF_Activity: I (otherwise these were reported as inactive (I))
[2]; [13]
  T.vaginalis_%inb_Rep1: 25.76%
[2]; [14]
  T.vaginalis_%inb_Rep2: 5.58%

## CO[C@@H]1C[C@H]2C=C[C@H]3[C@H]4O[C@]2(/C(C)=C\[C@@H](C)[C@@H]([C@@H](C)O)OC1=O)[C@@H]3[C@H](O)[C@@H](C)[C@H]4O [Nodusmicin]
[1]; [9]
  NFF_Activity: I (otherwise these were reported as inactive (I))
[2]; [10]
  T.vaginalis_%inb_Rep1: 11.16%
[2]; [11]
  T.vaginalis_%inb_Rep2: 10.52%

## CCCCC[C@@H]1CC[C@H](C)CCCCC(=O)N(C)[C@@H](Cc2ccc(OCCO)cc2)C(=O)O1 [PF1163B]
[1]; [9]
  NFF_Activity: I (otherwise these were reported as inactive (I))
[2]; [10]
  T.vaginalis_%inb_Rep1: 17.85%
[2]; [11]
  T.vaginalis_%inb_Rep2: 14.30%

## Cc1c2c(c(O)c3c(O)ccc(Cl)c13)C(=O)[C@]1(O)C(O)=C(C(N)=O)C(=O)[C@@H](N(C)C)[C@@H]1C2.Cl [BIA-A1552]
[1]; [3]
  NFF_Activity: I (otherwise these were reported as inactive (I))
[2]; [4]
  T.vaginalis_%inb_Rep1: 13.30%
[2]; [5]
  T.vaginalis_%inb_Rep2: 11.71%

## CCOCCO[C@@H]1CC[C@@H](C[C@@H](C)[C@@H]2CC(=O)[C@H](C)/C=C(\C)[C@@H](O)[C@@H](OC)C(=O)[C@H](C)C[C@H](C)/C=C/C=C/C=C(\C)[C@@H](OC)C[C@@H]3CC[C@@H](C)[C@@](O)(O3)C(=O)C(=O)N3CCCC[C@H]3C(=O)O2)C[C@H]1OC [Umirolimus]
[1]; [12]
  NFF_Activity: I (otherwise these were reported as inactive (I))
[2]; [6]
  T.vaginalis_%inb_Rep1: 9.81%
[2]; [8]
  T.vaginalis_%inb_Rep2: 13.47%

## CCCCCCCCCCCC[C@@H](C(=O)O)[C@H](C)C(=O)O [BIA-R1904]
[1]; [15]
  NFF_Activity: I (otherwise these were reported as inactive (I))
[2]; [16]
  T.vaginalis_%inb_Rep1: 13.79%
[2]; [17]
  T.vaginalis_%inb_Rep2: 5.71%

## CC[C@H](C)[C@H]1O[C@]2(C=C[C@@H]1C)C[C@@H]1C[C@@H](C/C=C(\C)[C@@H](O[C@H]3C[C@H](OC)[C@@H](O[C@H]4C[C@H](OC)[C@@H](O)[C@H](C)O4)[C@H](C)O3)[C@@H](C)/C=C/C=C3\CO[C@@H]4[C@H](O)C(C)=C[C@@H](C(=O)O1)[C@]34O)O2 [BIA-A1010]
[1]; [3]
  NFF_Activity: I (otherwise these were reported as inactive (I))
[2]; [4]
  T.vaginalis_%inb_Rep1: 14.32%
[2]; [5]
  T.vaginalis_%inb_Rep2: 14.17%

## C/C=C/C1=CC(=O)[C@@H](O)[C@@H]1O [BIA-T1408]
[1]; [15]
  NFF_Activity: I (otherwise these were reported as inactive (I))
[2]; [16]
  T.vaginalis_%inb_Rep1: 6.82%
[2]; [17]
  T.vaginalis_%inb_Rep2: 13.71%

## C[C@@H]1OC(=O)[C@H]2C[C@H]3CCCC[C@@H]3[C@@H](/C=C/[C@H]3CCC[C@H](C)N3C)[C@@H]12 [BIA-H1744]
[1]; NFF cells, screen at 5 µg/mL
  NFF_Activity: I (otherwise these were reported as inactive (I))
[2]; [13]
  T.vaginalis_%inb_Rep1: 12.98%
[2]; [14]
  T.vaginalis_%inb_Rep2: 14.75%

## Eprinomectin
[1]; NFF_NS1 screen at 5 µg/mL
  NFF_Activity: I (otherwise these were reported as inactive (I))
[2]; [6]
  T.vaginalis_%inb_Rep1: 12.49%
[2]; [7]
  T.vaginalis_Absorbance_Rep1: 0.941
  T.vaginalis_Absorbance_Rep2: 0.832
[2]; [8]
  T.vaginalis_%inb_Rep2: 15.33%

## CO[C@H]1C[C@@H]2CC[C@@H](C)[C@@](O)(O2)C(=O)C(=O)N2CCCC[C@H]2C(=O)O[C@H]([C@H](C)C[C@@H]2CC[C@@H](OC(=O)C(C)(CO)CO)[C@H](OC)C2)CC(=O)[C@H](C)/C=C(\C)[C@@H](O)[C@@H](OC)C(=O)[C@H](C)C[C@H](C)/C=C/C=C/C=C/1C [BIA-T1386]
[1]; [15]
  NFF_Activity: I (otherwise these were reported as inactive (I))
[2]; [16]
  T.vaginalis_%inb_Rep1: 7.60%
[2]; [17]
  T.vaginalis_%inb_Rep2: 9.14%

## CCC1OC(=O)C(C)C(OC2CC(C)(OC)C(O)C(C)O2)C(C)C(OC2OC(C)CC(N(C)C)C2O)C2(C)CC(C)C3(O2)OC1(C)C(O)C3C (stereo not shown) [BIA-A1348]
[1]; [3]
  NFF_Activity: I (otherwise these were reported as inactive (I))
[2]; [4]
  T.vaginalis_%inb_Rep1: 15.19%
[2]; [5]
  T.vaginalis_%inb_Rep2: 13.67%

## COc1cc(C)c(C(=O)O)c(OC)c1 [Orsellinic acid dimethylether]
[1]; [9]
  NFF_Activity: I (otherwise these were reported as inactive (I))
[2]; [10]
  T.vaginalis_%inb_Rep1: 12.73%
[2]; [11]
  T.vaginalis_%inb_Rep2: 13.02%

## COc1c(O)c(C)c(C)c(O)c1OC [BIA-H1651]
[1]; NFF cells, screen at 5 µg/mL
  NFF_Activity: A (active (A) compounds having >25% inhibitory activity)
[2]; [13]
  T.vaginalis_%inb_Rep1: 13.69%
[2]; [14]
  T.vaginalis_%inb_Rep2: 12.19%

## CC[C@H]1OC(=O)[C@H](C)[C@@H](O[C@H]2C[C@@](C)(OC)[C@@H](O)[C@H](C)O2)[C@H](C)[C@@H](O[C@@H]2O[C@H](C)C[C@H](N(C)C)[C@H]2O)[C@](C)(O)C[C@@H](C)C(=O)[C@H](C)[C@@H](O)[C@]1(C)O [Erythromycin A]
[1]; NFF_NS1 screen at 5 µg/mL
  NFF_Activity: I (otherwise these were reported as inactive (I))
[2]; [6]
  T.vaginalis_%inb_Rep1: 5.27%
[2]; [7]
  T.vaginalis_Absorbance_Rep1: 0.806
  T.vaginalis_Absorbance_Rep2: 0.694
[2]; [8]
  T.vaginalis_%inb_Rep2: 3.78%

## CCC(=O)[C@@H](C)[C@@H](O)[C@H](C)C[C@@H](C)[C@H]1OC(=O)C[C@@]2(O)CC=C(C)[C@H](O2)/C(C)=C/CCC[C@@H](O[C@H]2C[C@@H](OC(N)=O)[C@H](O)[C@@H](C)O2)/C=C/[C@H](C)C[C@H]1C [Venturicidin A]
[1]; [12]
  NFF_Activity: I (otherwise these were reported as inactive (I))
[2]; [6]
  T.vaginalis_%inb_Rep1: 9.49%
[2]; [8]
  T.vaginalis_%inb_Rep2: 12.92%

## C=C1c2cccc(O)c2C(O)=C2C(=O)C3(O)C(O)=C(C(N)=O)C(=O)C(N(C)C)C3C(O)C12 (stereo not shown) [BIA-M1467]
[1]; NFF cells, screen at 5 µg/mL
  NFF_Activity: I (otherwise these were reported as inactive (I))
[2]; [13]
  T.vaginalis_%inb_Rep1: 12.78%
[2]; [14]
  T.vaginalis_%inb_Rep2: 4.43%

## CC1=C[C@H](O/C=C2/C(=O)O[C@@H]3c4ccccc4C[C@H]23)OC1=O [GR24]
[1]; NFF_NS1 screen at 5 µg/mL
  NFF_Activity: I (otherwise these were reported as inactive (I))
[2]; [6]
  T.vaginalis_%inb_Rep1: 14.00%
[2]; [7]
  T.vaginalis_Absorbance_Rep1: 0.978
  T.vaginalis_Absorbance_Rep2: 0.705
[2]; [8]
  T.vaginalis_%inb_Rep2: 4.49%

## CCCCCC[C@H]1C(=O)O[C@H](C)[C@H](NC(=O)c2cccc(NC=O)c2O)C(=O)O[C@@H](C)[C@@H]1OC(=O)CC(C)C [BIA-A1442]
[1]; [3]
  NFF_Activity: I (otherwise these were reported as inactive (I))
[2]; [4]
  T.vaginalis_%inb_Rep1: 17.88%
[2]; [5]
  T.vaginalis_%inb_Rep2: 12.87%

## CC1(C)CC[C@]2(C(=O)O)CC[C@]3(C)C(=CC[C@@H]4[C@@]5(C)C[C@@H](O)[C@H](O)[C@@](C)(CO)[C@@H]5CC[C@]43C)[C@@H]2C1 [BIA-A1754]
[1]; [3]
  NFF_Activity: I (otherwise these were reported as inactive (I))
[2]; [4]
  T.vaginalis_%inb_Rep1: 13.25%
[2]; [5]
  T.vaginalis_%inb_Rep2: 12.44%

## Cc1cc(=O)c(O)cc2c1C[C@@H]1CC(C)(C)/C=C/C[C@@]3(C)Oc4cc(O)c(=O)cc(C)c4C[C@@H]3C[C@@H](O)[C@]1(C)O2 [Eupenifeldin]
[1]; NFF_NS1 screen at 5 µg/mL
  NFF_Activity: A (active (A) compounds having >25% inhibitory activity)
[2]; [6]
  T.vaginalis_%inb_Rep1: 14.05%
[2]; [7]
  T.vaginalis_Absorbance_Rep1: 0.97
  T.vaginalis_Absorbance_Rep2: 0.81
[2]; [8]
  T.vaginalis_%inb_Rep2: 13.74%
